Experimental data reported in patent publication US11224601B1, “Compounds that inhibits MCL-1 protein” (priority 2017, dated 2022).

Target: recombinant human Mcl-1 (Mcl-1/Bim interaction) (Homo sapiens (Human), UniProt Q07820)
Assay: biochemical
Assay type: binding
Settings: cell free Mcl-1:Bim TR-FRET; read-out: Mcl-1 HTRF IC50
Method: Cell free Mcl-1:Bim Affinity Assay (Mcl-1 HTRF)
The inhibition of the Mcl-1/Bim interaction was measured using a time-resolved fluorescence resonance energy transfer (TR-FRET) assay. The recombinant human Mcl-1 (C-terminally 6×His tagged Mcl-1 containing residues 171-327) was generated at Amgen Inc (Thousand Oaks, Calif.). A biotinylated peptide derived from human Bim (residues 51-76) was purchased from CPC Scientific (San Jose, Calif.). The TR-FRET assay was conducted in a 384-well white OptiPlate™ (PerkinElmer, Waltham, Mass.) in a total volume of 40 μL. The reaction mixture contained 0.1 nM Mcl-1(171-327), 0.05 nM biotin-Bim(51-76), 0.05 nM LANCE® Eu-W1024 Anti-6×His (PerkinElmer), 0.072 nM Streptavidin-Xlent (Cisbio, Bedford, Mass.), and serially diluted test compounds in the binding buffer of 20 mM Hepes, pH 7.5, 150 mM NaCl, 0.016 mM Brij® 35, and 1 mM dithiothreitol. Test compounds were pre-incubated with Mcl-1(171-327) and biotin-Bim (51-76) for 60 min before addition of the detection mixture (LANCE® Eu-W1024 Anti-6×His and Streptavidin-Xlent). The reaction plates were further incubated overnight and then were read on an Envision® multimode reader (PerkinElmer). Fluorescence signals were measured at 620 nm (40-nm bandwidth) and 665 nm (7.5-nm bandwidth) with a 60 μs delay after excitation at 320 nm (75-nm bandwidth). The signal ratio at 665/620 nm corresponded to the Mcl-1/Bim interaction and was used in all data analyses. The IC50 values of test compounds were determined from duplicate data by analyzing competition curves using a four-parameter sigmoidal model in GraphPad Prism (GraphPad Software, San Diego, Calif.) or in Genedata Screener® (Genedata, Basel, Switzerland).

Sequence of recombinant human Mcl-1 (Mcl-1/Bim interaction) (Q07820 171-327): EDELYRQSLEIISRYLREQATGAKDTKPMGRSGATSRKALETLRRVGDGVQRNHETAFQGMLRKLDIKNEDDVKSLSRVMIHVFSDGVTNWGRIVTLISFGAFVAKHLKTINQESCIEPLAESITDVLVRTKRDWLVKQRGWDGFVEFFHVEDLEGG

SMILES	IC50
CC[C@@H]1CC/C=C/[C@@](CN2CCN3CCCC[C@@H]3C2)(OC)[C@@H]2CC[C@H]2CN2C[C@@]3(CCCc4cc(Cl)ccc43)COc3ccc(cc32)C(=O)N(C)S1(=O)=O [Example 33, (1S,3′R,6′R,7′R,8′E,12′R)-6-chloro-12′-ethyl-7′-methoxy-14′-methyl-7′-((9aR)-octahydro-2H-pyrido[1,2-a]pyrazin-2-ylmethyl)-3,4-dihydro-2H,15′H-spiro[naphthalene-1,22′-[20]oxa[13]thia[1,14]diazatetracyclo[14.7.2.0˜3,6˜.0˜19,24˜]pentacosa[8,16,18,24]tetraen]-15′-one 13′,13′-dioxide]	8250 pM
CO[C@]1(CN2CCN3CCN(C(C)=O)C[C@@H]3C2)/C=C/C[C@H](C)[C@@H](C)S(=O)(=O)NC(=O)c2ccc3c(c2)N(C[C@@H]2CC[C@H]21)C[C@@]1(CCCc2cc(Cl)ccc21)CO3 (single isomer, unassigned) [Example 230]	51 pM
CO[C@@]1(CN2CCN(C3COC3)CC2)/C=C/C[C@H](C)[C@@H](C)S(=O)(=O)NC(=O)c2ccc3c(n2)N(C[C@@H]2CC[C@H]21)C[C@@]1(CCCc2cc(Cl)ccc21)CO3 [Example 19, (1S,3′R,6′R,7′S,8′E,11′S,12′R)-6-chloro-7′-methoxy-11′,12′-dimethyl-7′-((4-(3-oxetanyl)-1-piperazinyl)methyl)-3,4-dihydro-2H,15′H-spiro[naphthalene-1,22′-[20]oxa[13]thia[1,14,25]triazatetracyclo[14.7.2.0˜3,6˜.0˜19,24˜]pentacosa[8,16,18,24]tetraen]-15′-one 13′,13′-dioxide]	125 pM
CCO[C@]1(CN2CCN(C(C)C)CC2)/C=C/C[C@H](C)[C@@H](CCOC)S(=O)(=O)NC(=O)c2ccc3c(c2)N(C[C@@H]2CC[C@H]21)C[C@@]1(CCCc2cc(Cl)ccc21)CO3 [Example 16, (1S,3′R,6′R,7′R,8′E,11′S,12′R)-6-chloro-7′-ethoxy-12′-(2-methoxyethyl)-11′-methyl-7′-((4-(1-methylethyl)-1-piperazinyl)methyl)-3,4-dihydro-2H,15′H-spiro[naphthalene-1,22′-[20]oxa[13]thia[1,14]diazatetracyclo[14.7.2.0˜3,6˜.0˜19,24˜]pentacosa[8,16,18,24]tetraen]-15′-one 13′,13′-dioxide]	65 pM
C[C@@H]1[C@@H](C)C/C=C/[C@]2(CN(Cc3ccccc3)CCO2)[C@@H]2CC[C@H]2CN2C[C@@]3(CCCc4cc(Cl)ccc43)COc3ccc(cc32)C(=O)NS1(=O)=O [Example 138, (1S,3′R,6′R,7′R,8′E,11′S,12′R)-4″-benzyl-6-chloro-11′,12′-dimethyl-3,4-dihydro-2H,15′H-dispiro[naphthalene-1,22′-[20]oxa[13]thia[1,14]diazatetracyclo[14.7.2.0˜3,6˜.0˜19,24˜]pentacosa[8,16,18,24]tetraene-7′,2″-[1,4]oxazinan]-15′-one 13′,13′-dioxide]	26700 pM
CO[C@]1(CN2CCN3CCN(C(C)=O)C[C@@H]3C2)/C=C/C[C@H](C)[C@@H](C)S(=O)(=O)NC(=O)c2ccc3c(c2)N(C[C@@H]2CC[C@H]21)C[C@@]1(CCCc2cc(Cl)ccc21)CO3 (single isomer, unassigned) [Example 229]	619 pM
CCO[C@]1(CN2CCN3CCCC[C@@H]3C2)/C=C/C[C@H](C)[C@@H](CCOC)S(=O)(=O)NC(=O)c2ccc3c(c2)N(C[C@@H]2CC[C@H]21)C[C@@]1(CCCc2cc(Cl)ccc21)CO3 [Example 15, (1S,3′R,6′R,7′R,8′E,11′S,12′R)-6-chloro-7′-ethoxy-12′-(2-methoxyethyl)-11′-methyl-7′-((9aR)-octahydro-2H-pyrido[1,2-a]pyrazin-2-ylmethyl)-3,4-dihydro-2H,15′H-spiro[naphthalene-1,22′-[20]oxa[13]thia[1,14]diazatetracyclo[14.7.2.0˜3,6˜.0˜19,24˜]pentacosa[8,16,18,24]tetraen]-15′-one 13′,13′-dioxide]	119 pM
CCO[C@]1(CN2CCN(C(C)(C)C)CC2)/C=C/C[C@H](C)[C@@H](C)S(=O)(=O)NC(=O)c2ccc3c(c2)N(C[C@@H]2CC[C@H]21)C[C@@]1(CCCc2cc(Cl)ccc21)CO3 [Example 6, (1S,3′R,6′R,7′R,8′E,11′S,12′R)-7′-((4-tert-butyl-1-piperazinyl)methyl)-6-chloro-7′-ethoxy-11′,12′-dimethyl-3,4-dihydro-2H,15′H-spiro[naphthalene-1,22′-[20]oxa[13]thia[1,14]diazatetracyclo[14.7.2.0˜3,6˜.0˜19,24˜]pentacosa[8,16,18,24]tetraen]-15′-one 13′,13′-dioxide]	79 pM
CO[C@@]1(CN2CCN3CCN(C(C)=O)C[C@@H]3C2)/C=C/C[C@H](C)[C@@H](C)S(=O)(=O)NC(=O)c2ccc3c(c2)N(C[C@@H]2CC[C@H]21)C[C@@]1(CCCc2cc(Cl)ccc21)CO3 (single isomer, unassigned) [Example 226]	57 pM
C[C@@H]1[C@@H](C)C/C=C/[C@@](O)(CNC(C)(C)C)[C@@H]2CC[C@H]2CN2C[C@@]3(CCCc4cc(Cl)ccc43)COc3ccc(cc32)C(=O)NS1(=O)=O [Example 125, (1S,3′R,6′R,7′S,8′E,11′S,12′R)-7′-((tert-butylamino)methyl)-6-chloro-7′-hydroxy-11′,12′-dimethyl-3,4-dihydro-2H,15′H-spiro[naphthalene-1,22′-[20]oxa[13]thia[1,14]diazatetracyclo[14.7.2.0˜3,6˜.0˜19,24˜]pentacosa[8,16,18,24]tetraen]-15′-one 13′,13′-dioxide]	6100 pM
CO[C@]1(CN2CCN3CCS(=O)(=O)C[C@@H]3C2)/C=C/C[C@H](C)[C@@H](C)S(=O)(=O)NC(=O)c2ccc3c(c2)N(C[C@@H]2CC[C@H]21)C[C@@]1(CCCc2cc(Cl)ccc21)CO3 (stereo in doubt) [Example 219]	73 pM
C[C@@H]1[C@@H](C)C/C=C/C(O)(CN2CCN3CCCC[C@@H]3C2)[C@@H]2CC[C@H]2CN2C[C@@]3(CCCc4cc(Cl)ccc43)COc3ccc(cc32)C(=O)NS1(=O)=O (single isomer, unassigned) [Example 242]	249 pM
CO[C@]1(CN2CCN3CCS(=O)(=O)C[C@@H]3C2)/C=C/C[C@H](C)[C@@H](C)S(=O)(=O)NC(=O)c2ccc3c(c2)N(C[C@@H]2CC[C@H]21)C[C@@]1(CCCc2cc(Cl)ccc21)CO3 (stereo in doubt) [Example 215]	149 pM
C[C@@H]1[C@@H](C)C/C=C/[C@@](O)(CN2CCOC[C@@H]2Cn2ccnc2)[C@@H]2CC[C@H]2CN2C[C@@]3(CCCc4cc(Cl)ccc43)COc3ccc(cc32)C(=O)NS1(=O)=O [Example 100, (1S,3′R,6′R,7′S,8′E,11′S,12′R)-6-chloro-7′-hydroxy-7′-(((3S)-3-(1H-imidazol-1-ylmethyl)-4-morpholinyl)methyl)-11′,12′-dimethyl-3,4-dihydro-2H,15′H-spiro[naphthalene-1,22′-[20]oxa[13]thia[1,14]diazatetracyclo[14.7.2.0˜3,6˜.0˜19,24˜]pentacosa[8,16,18,24]tetraen]-15′-one 13′,13′-dioxide]	188 pM
CO[C@@]1(CN2CCN3CCN(S(C)(=O)=O)C[C@@H]3C2)/C=C/C[C@H](C)[C@@H](C)S(=O)(=O)NC(=O)c2ccc3c(c2)N(C[C@@H]2CC[C@H]21)C[C@@]1(CCCc2cc(Cl)ccc21)CO3 (stereo in doubt) [Example 228]	200 pM
CO[C@@]1(CN2CCN(CC(=O)O)CC2)/C=C/C[C@H](C)[C@@H](C)S(=O)(=O)NC(=O)c2ccc3c(c2)N(C[C@@H]2CC[C@H]21)C[C@@]1(CCCc2cc(Cl)ccc21)CO3 [Example 270, (4-(((1S,3′R,6′R,7′S,8′E,11′S,12′R)-6-chloro-7′-methoxy-11′,12′-dimethyl-13′,13′-dioxido-15′-oxo-3,4-dihydro-2H-spiro[naphthalene-1,22′-[20]oxa[13]thia[1,14]diazatetracyclo[14.7.2.0˜3,6˜.0˜19,24˜]pentacosa[8,16,18,24]tetraen]-7′-yl)methyl)-1-piperazinyl)acetic acid]	35 pM
CO[C@@]1(CN2CCN3CCN(C(C)=O)C[C@@H]3C2)/C=C/C[C@H](C)[C@@H](C)S(=O)(=O)NC(=O)c2ccc3c(c2)N(C[C@@H]2CC[C@H]21)C[C@@]1(CCCc2cc(Cl)ccc21)CO3 (single isomer, unassigned) [Example 225]	87 pM
CC(C)N(CCO)C[C@]1(O)/C=C/C[C@H](C)[C@@H](C)S(=O)(=O)NC(=O)c2ccc3c(c2)N(C[C@@H]2CC[C@H]21)C[C@@]1(CCCc2cc(Cl)ccc21)CO3 [Example 126, (1S,3′R,6′R,7′S,8′E,11′S,12′R)-6-chloro-7′-hydroxy-7′-(((2-hydroxyethyl)(1-methylethyl)amino)methyl)-11′,12′-dimethyl-3,4-dihydro-2H,15′H-spiro[naphthalene-1,22′-[20]oxa[13]thia[1,14]diazatetracyclo[14.7.2.0˜3,6˜.0˜19,24˜]pentacosa[8,16,18,24]tetraen]-15′-one 13′,13′-dioxide]	627 pM
CO[C@@]1(CN2CCN3CCN(C(C)=O)C[C@@H]3C2)/C=C/C[C@H](C)[C@@H](C)S(=O)(=O)NC(=O)c2ccc3c(c2)N(C[C@@H]2CC[C@H]21)C[C@@]1(CCCc2cc(Cl)ccc21)CO3 (stereo in doubt) [Example 214]	71 pM
COCC[C@@H]1[C@@H](C)C/C=C/[C@@](CN2CCN(C(C)C)[C@H](C)C2)(OC)[C@@H]2CC[C@H]2CN2C[C@@]3(CCCc4cc(Cl)ccc43)COc3ccc(cc32)C(=O)NS1(=O)=O [Example 12, (1S,3′R,6′R,7′R,8′E,11′S,12′R)-6-chloro-7′-methoxy-12′-(2-methoxyethyl)-11′-methyl-7′-(((3R)-3-methyl-4-(1-methylethyl)-1-piperazinyl)methyl)-3,4-dihydro-2H,15′H-spiro[naphthalene-1,22′-[20]oxa[13]thia[1,14]diazatetracyclo[14.7.2.0˜3,6˜.0˜19,24˜]pentacosa[8,16,18,24]tetraen]-15′-one 13′,13′-dioxide]	72 pM
C[C@@H]1[C@@H](C)C/C=C/C(O)(CN2CCN3CCCC[C@@H]3C2)[C@@H]2CC[C@H]2CN2C[C@@]3(CCCc4cc(Cl)ccc43)COc3ccc(cc32)C(=O)NS1(=O)=O (single isomer, unassigned) [Example 243]	78 pM
